The subject of the assay is M. tuberculosis H37Rv growth inhibition, 7H9 media. Kind of assay: M. tuberculosis growth inhibition, HTS (AID 449762).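 As to all read-outs here: bacterial growth assessed after seven days of incubation.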 The note with it: for IC90: measured here: IC90 growth inhibition.

Results filed as inconclusive are left out.

Turning to `CCOc1ccc(-n2cc(-c3ccccc3)c3c(=O)[nH]cnc32)cc1`, the IC50 is 8.41 µM and the IC90 worked out at 27.5 µM.

As for `CC(C)(C)c1ccc(OCCCC(=O)NC2=NCCS2)cc1`, the IC50 was 23 µM and the IC90 turned out to be 60.6 µM.

`S=C(NCCc1ccccc1)NN=C1CCCCCC1`: the IC50 is 23.1 µM and the IC90 is 26.6 µM.

Turning to `OC(CNCC(c1ccc(Cl)cc1Cl)c1c[nH]c2ccccc12)c1ccccc1` (stereo not given), the half-maximal inhibitory concentration (IC50) is 16.9 µM and the IC90 turned out to be 23.4 µM.

Consider `CCCC(NCC(O)COc1ccc(-c2ccccc2)cc1)c1ccccc1` (stereo not given), for which the IC50 was 11.5 µM and the IC90 was 14.9 µM.

Take `CC(=O)/C=C(\C)Nc1ccccc1O`: the IC50 is 3.57 µM and the IC90 is 6.18 µM.

For the compound `COc1ccccc1Nc1nc(N)nc(CCl)n1`, the IC50 was 1.67 µM and the IC90 came to 8.82 µM.

As for `CCCCOC(=O)CSc1nnc(-c2ccc(Cl)cc2Cl)o1`, the concentration for half-maximal inhibition (IC50) was < 0.2 µM and the IC90 turned out to be 1.85 µM.

In the case of `COc1ccc(C(C)=O)cc1COC(=O)c1ccc2ccccc2n1`, the 50% inhibitory concentration (IC50) is 27.8 µM and the IC90 was > 100 µM.

As to `Cc1ccc(-c2ccc(C3C(C#N)=C(N)Oc4n[nH]c(C)c43)o2)cc1` (stereo not given), the IC50 was 24.5 µM and the IC90 amounted to 52 µM.

On to `COc1ccc2nc(N=NC3=C(O)CC(C)(C)CC3=O)sc2c1`, for which the IC50 is 12.4 µM and the IC90 was determined as 13.7 µM.

In the case of `O=C1/C(=N\S(=O)(=O)c2cccs2)C([n+]2ccc(CCCc3ccccc3)cc2)=C([O-])c2ccccc21`, the IC50 is 18.2 µM and the 90% effect concentration (IC90) was found to be 22.1 µM.

As to `C=CCNc1oc(-c2ccc(-c3ccccc3)cc2)nc1C#N`, the IC50 is 12.2 µM and the IC90 came out at 13.7 µM.

As to `CCOc1cc2c3c(c1)C1(C(=O)N3C(C)(C)CC2C)C(C#N)=C(N)N2C(=C1C#N)Nc1ccccc12` (stereo not given), the IC50 is 22.4 µM and the IC90 was > 100 µM.

As to `CN1CCc2cc3c(c4c2C1Cc1ccccc1-4)OCO3` (stereo not given), the IC50 is 1.66 µM and the IC90 turned out to be 1.94 µM.

Consider `CN1CCN(C2Cc3ccccc3Sc3cc(C(F)(F)F)ccc32)CC1` (stereo not given), for which the IC50 was 13.5 µM and the IC90 is 15.6 µM.

Consider `CCCCCC(=O)N/N=C(\C)c1ccccn1`, for which the IC50 was 13.9 µM and the 90% effect concentration (IC90) was 33.1 µM.

With `Cc1ccc2c(c1)C1C[N+](C)(CC(=O)c3ccc(Cl)cc3Cl)CCC1N2C(=O)c1ccc(F)cc1` (stereo not given), the IC50 was 23.9 µM and the IC90 is 27.1 µM.

On to `Nc1ccc(Oc2ccc(F)cc2)nc1`, for which the IC50 is 60.6 µM and the IC90 amounted to 90.1 µM.

For `Cc1ccc(N2CCN(C(=O)c3cn(CC4CCCCC4)nn3)C(C)C2)cc1` (stereo not given), the IC50 was 4.1 µM and the IC90 amounted to 12.4 µM.

Take `c1ccc(C[C@H]2CN=C(Nc3ccccc3)N2CCCC2CCCC2)cc1`: the IC50 is 31.4 µM and the IC90 was determined as 48.5 µM.

On to `Cc1cccc(N(C(=O)c2nsc(Cl)c2Cl)C(C(=O)NC2CCCC2)c2ccc(O)cc2)c1C` (stereo not given), for which the IC50 is 21.7 µM and the IC90 turned out to be 28.2 µM.

Regarding `CSc1ccc(CNC(=O)C2Cc3cc(S(=O)(=O)N4CCCCC4)ccc3N2C(C)=O)cc1` (stereo not given), the IC50 is 46.4 µM and the IC90 was > 50 µM.

Take `NN(Cc1ccccc1)C(=S)Nc1ccc(Cl)c(Cl)c1`: the IC50 is 33.8 µM and the IC90 is 58.1 µM.

Consider `c1nc2n(n1)C1=C(CCCC1)C1(CCCCC1)N2`, for which the IC50 was 10.2 µM and the IC90 is 30 µM.

Regarding `CC1=NN(c2ccccc2)C(=O)/C1=C\c1c(C)[nH]n(-c2ccccc2)c1=O`, the IC50 was 18.2 µM and the IC90 was 46 µM.

For the compound `COc1ccc(C(=O)c2c(C(F)(F)F)oc3c2C(=O)c2ccccc2C3=O)cc1OC`, the IC50 was 12 µM and the IC90 is 17.7 µM.

As for `COc1ccc(NCc2nc3ccccc3n2CCOc2ccccc2)cc1`, the IC50 was 44.8 µM and the IC90 turned out to be 50.6 µM.

`CCCCCCC[N+](CC)(CC)CCCCc1ccc(Cl)cc1`: the IC50 was 24.7 µM and the IC90 stood at 27.8 µM.

Consider `c1ccc(C2[C@H]3CN(CC4CCCCC4)[C@H](c4ccccc4)C34CC2(c2cccnc2)C4)cc1` (stereo not given in full), for which the IC50 is 31.4 µM and the IC90 amounted to 41.5 µM.

As to `COc1ccc(CN2CCCC(C(=O)c3ccc(SC)cc3)C2)cc1Cn1cccn1` (stereo not given), the IC50 is 23.9 µM and the IC90 stood at 26.6 µM.

As for `Cc1cc2cc(CNC(=O)NC3CCCCC3)ccc2[nH]1`, the IC50 was 23.3 µM and the IC90 came to 50.9 µM.

On to `Cc1ccc2ccc3ccc(C)nc3c2n1`, for which the IC50 was 0.49 µM and the IC90 came to 1.31 µM.

Regarding `CCOc1[nH]n(-c2ccccc2)c(=O)c1C=Nc1ccc(OC)cc1`, the IC50 is 36.5 µM and the IC90 was > 100 µM.

`COC(=O)CCCCC1SCC(NC(=O)c2ccccc2)C1=O` (stereo not given): the IC50 is 8.79 µM and the IC90 was 15.4 µM.

`CC(C)CS(=O)(=O)C1=NN2C(=N)/C(=C\c3ccc(OC(=O)c4ccco4)cc3)C(=O)N=C2S1`: the IC50 is 20.6 µM and the IC90 is 25.9 µM.

As to `CCOC(=O)C1=NOC(CNc2ncc(C(F)(F)F)cc2Cl)C1` (stereo not given), the IC50 is 7.03 µM and the IC90 worked out at 14.1 µM.

In the case of `CC1=NN(C(=O)c2ccc(Br)cc2)C(O)(c2ccccc2)C1` (stereo not given), the IC50 was 48.1 µM and the IC90 is 65.6 µM.

For the compound `CCOC(=O)N1CCN(c2nc(N(c3ccccc3)c3ccccc3)nc(-n3ccnc3)n2)CC1`, the IC50 was 92.7 µM and the IC90 was > 100 µM.

As for `Cc1ccccc1Cn1ccc(=NCc2ccccc2)cc1`, the IC50 is 4.39 µM and the IC90 was found to be 12 µM.

For the compound `CCCn1nnc(NC(=O)COc2ccc(CC)cc2)n1`, the IC50 is 29.7 µM and the 90% effect concentration (IC90) was > 100 µM.

On to `CCCCNC(=S)Nc1ccc2cn[nH]c2c1`, for which the IC50 is 11.2 µM and the IC90 came out at 21.3 µM.

On to `C/C(=N\NC(=O)c1nnn(-c2nonc2N)c1CN(C)c1ccccc1)c1ccccn1`, for which the IC50 is 8.5 µM and the IC90 was found to be 15.7 µM.

Consider `c1ccc(-n2cnc3cc(NCc4cccs4)ccc32)cc1`, for which the IC50 was 85.6 µM and the IC90 was 97.2 µM.

Consider `Nc1ccc(N=Nc2ccccc2)c2cccnc12`, for which the IC50 was 10.9 µM and the IC90 was found to be 49.5 µM.

Consider `O=C(/C=C/c1ccc(O)cc1)c1ccc(NC2=C(N3CCCCC3)C(=O)c3ccccc3C2=O)cc1`, for which the IC50 was 12 µM and the IC90 turned out to be 13.6 µM.

For the compound `COC(=O)COc1ccc(-c2ccccc2)cc1C=O`, the IC50 is 11 µM and the IC90 worked out at 19 µM.

As to `CSc1nsc(SCC(=O)Nc2ccc(F)cc2F)n1`, the IC50 was 19.8 µM and the IC90 stood at 63.4 µM.

Regarding `CCOc1ccc(Nc2cc(C)nc(-n3nc(C)cc3C)n2)cc1`, the IC50 was 0.7 µM and the IC90 amounted to 4.77 µM.

Consider `O=C(NC1CCCC(C(F)(F)F)C1)c1ccc([N+](=O)[O-])o1` (stereo not given), for which the IC50 was 2.71 µM and the IC90 amounted to 12.3 µM.

For `Cc1ccc(C(=O)CC(SCC(=O)O)c2ccc([N+](=O)[O-])cc2)cc1` (stereo not given), the IC50 was 5.78 µM and the IC90 came to 6.72 µM.

Turning to `COc1ccc(CN(CCC(c2ccccc2)c2ccc(OC(C)C)cc2)C(=O)CCl)cc1OC` (stereo not given), the IC50 is 6.53 µM and the IC90 was 12.5 µM.

Consider `N#C/C(=C1\CCCN1)c1nc(-c2ccccc2)cs1`, for which the IC90 is > 100 µM.

Consider `CC(C)COCc1ccc(O)c2ncccc12`, for which the IC50 is 1.64 µM and the IC90 came out at 2.35 µM.

For `CCOC(=O)Cn1c(-c2ccccc2)ccc(C#N)c1=O`, the IC50 was 4.51 µM and the IC90 is > 100 µM.

Regarding `COc1nc(-c2ccccc2)cc(-c2ccc(OC)c(OC)c2)n1`, the IC50 is 45.3 µM and the IC90 is > 100 µM.

Turning to `CN(C)CCNc1ncnc2c1sc1nc(-c3ccccc3)c3c(c12)CCCC3`, the IC50 was 17.7 µM and the IC90 came out at 20.7 µM.

In the case of `O=[N+]([O-])c1cn(-c2nc(-c3ccco3)cc(C(F)(F)F)n2)cn1`, the IC50 is 1.77 µM and the IC90 amounted to 22 µM.

`O=C(OCC(=O)N1CCCCC1)c1cc2ccccc2cc1O`: the IC50 was 5 µM and the IC90 stood at 9.61 µM.

Regarding `CN1CCN(c2ccc(C(=O)c3cn(-c4ccc(F)c(Cl)c4)nn3)cc2)CC1`, the IC90 was > 100 µM.

Turning to `O=C(c1ccc(-c2ccccc2)c(F)c1)C1CCCN(C(=O)c2cncs2)C1` (stereo not given), the IC50 is 35.9 µM and the IC90 stood at 46.8 µM.

In the case of `COc1ccc([C@H]2CC(=O)C=C(c3ccc4c5c(cccc35)CC4)C2)cc1`, the IC50 was 11 µM and the IC90 amounted to 23 µM.

On to `Cc1cc(/C=N\NC(=O)c2cccs2)c(C)n1-c1ccc2ncccc2c1`, for which the IC50 is 12.1 µM and the IC90 was determined as 31.7 µM.

`CCc1cc(C(=O)Nc2ccc(C)cc2Br)cs1`: the IC50 was 30 µM and the IC90 was > 100 µM.

`CC1CCCC(C)N1C(=O)COC(=O)c1cc(-c2cccs2)nn1-c1ccccc1` (stereo not given): the IC50 was 24.5 µM and the IC90 stood at 55.6 µM.

As for `CCOC(=O)c1sc(C)c2c(=O)n(CC(=O)c3ccc(Br)cc3)nnc12`, the IC50 was 74.3 µM and the IC90 is > 100 µM.

Regarding `O=S1(=O)CCC(N=Cc2ccc(-c3ccc(Cl)cc3)o2)C1` (stereo not given), the IC50 was 54.8 µM and the IC90 was > 100 µM.

For the compound `O=[N+]([O-])c1ncccc1Oc1nc(-c2cccnc2)nc2ccccc12`, the IC50 is < 0.2 µM and the IC90 amounted to 1.36 µM.

On to `CC(C)OC(=O)c1ccc(COC(=O)c2cnccn2)cc1`, for which the IC50 is 7.68 µM and the IC90 is > 100 µM.

As for `COC(=O)c1cc(Sc2cccc(Cl)c2Cl)ccn1`, the IC50 is 20.6 µM and the IC90 came out at 30.7 µM.

In the case of `COC(=O)CSc1[nH]c2ccc(Br)cc2c1[N+](=O)[O-]`, the IC50 was 5.64 µM and the IC90 was 9.31 µM.

In the case of `O=C(NCCc1ccc(Cl)cc1)c1ccc(CS(=O)Cc2ccc(Cl)cc2)o1` (stereo not given), the IC50 is 37.7 µM and the IC90 is 49.1 µM.

With `O=c1c(Cl)c2oc3ccccc3nc-2c2ccccc12`, the IC50 was 9.38 µM and the 90% effect concentration (IC90) was found to be 11.9 µM.

For `CC1(CCc2ccccc2)NC(=S)N(c2ccc(Cl)cc2)N1` (stereo not given), the IC90 was > 100 µM.
